Experimental findings from patent US20170298100A1, “ANTI-VIRAL PEPTIDES” (Cascadia Life Sciences LLC, priority 2014, published 2017) are described below.

Data set [1] concerns Vero African green monkey kidney cells.
The subject of another data set is MDCK canine kidney cells. The conditions noted are these: for effect on monolayer: compared to cell control wells.
Data set [2] relates to influenza H3N2/Wisconsin/67/2005. Description: plaque assay of influenza H3N2 replication in MDCK cells. Format: cell-based, influenza virus. Particulars: 10 μM, control drug.
For data set [3], the system named is herpes simplex virus type 1 strain KOS. The data set can be described thus: plaque inhibition assay of HSV1 strain KOS replication in Vero cells. Format: cell-based. The conditions noted are these: for inhibition of plaque number: compared to media-only treated controls.

Read-outs that look alike come from different tables or passages of the source.

Regarding “Ac-RQYSVTDALEDVSTSPQSTEEVVQSFLISQ-NH2 [CLS1S]”, the “density of the monolayer” value in data set [1] (188 ug/ml dilution) is on record as “did not affect the density of the monolayer”. The effect on monolayer result in data set [1] (highest concentration, compared to control untreated cells) is on record as “moderate thinning”.

As to “Ac-ADVDVSAVQAKLGALELNQRDAAAETELRV-NH2 [CLS2A]”, the cytotoxicity result in the data set with MDCK canine kidney cells (59.4 μM (second concentration)) was “no cytotoxicity”. Also, the effect on monolayer result in the data set with MDCK canine kidney cells (188 μM (highest concentration)) is “moderate thinning and more intense staining of the monolayer”.

Regarding “Ac-GDTVGLIDEQNEASKTNGLGAAEAF-NH2 [CLS2G]”, the cytotoxicity entry with MDCK canine kidney cells (74.0 μM (second concentration)) was “no cytotoxicity”. For the same compound, the effect on monolayer result in the data set on MDCK canine kidney cells (235 μM (highest concentration)) was “moderate thinning and more intense staining of the monolayer”.

Turning to `CCOC(=O)C1=C[C@@H](OC(CC)CC)[C@H](NC(C)=O)[C@@H](N)C1` [Oseltamivir], the “inhibition of H3N2 plaques” value in data set [2] is reported as “completely inhibitory”.

For `Nc1nc2c(ncn2COCCO)c(=O)[nH]1` [acyclovir, reference compound], the “plaque size relative to plaques with 56 μM CLS1N (approx. 0.7 mm)” value in data set [3] (5 μM acyclovir control) is “approximately the same size”.

Take “RQYSVTDALEDVNTSPQSTEEVVQSFLISQ (Artificial anti-viral peptides) [CLS1N]”: the monolayer appearance entry in data set [1] (5.6 μM (dilution 4)) and in data set [1] (17.6 μM (dilution 3)) was “normal microscopically” each time. Moreover, the “cytotoxicity grade (density of the monolayer)” value in data set [1] (56 μM) was “no cytotoxicity”. For the same compound, the effect on monolayer result in data set [1] (177 μM, compared to cell control wells) was “moderate thinning and moderately less intense staining of the monolayer”. The plaque size entry in data set [3] (5.6 μM (dilution 4)) and in data set [3] (17.6 μM (dilution 3)) was “wild type size” throughout. Besides, the “inhibition of plaque number” value in data set [3] (5.6 μM (dilution 4)) and in data set [3] (17.6 μM (dilution 3)) was “not significant inhibition of plaque number” in each case. Also, the “plaque size (diameter)” value in data set [3] (56 μM, untreated plaques approx. 1.5 mm) is “approx. 0.7 mm”. Besides, the plaque number entry in data set [3] (177 μM) is “reduced in number”. The “inhibition of virus growth in cells” value in data set [3] (plaque inhibition assay, Vero cells) was “effectively inhibited virus growth”.
